Measured values from ChEMBL document CHEMBL1201862, “PubChem BioAssay data set” (2004).
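A five-concentration, 48-hour dose response in 96-well plates underlies each endpoint, interpolated linearly between surrounding concentrations. GI50: concentration for 50% inhibition of growth.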 The source made the active and inactive calls. Rule as the data show it: active = GI50 up to about 1.1 µM and inactive = higher.

Key:
Test in all cases: NCI anticancer screen, dose series, 48 h
NCI-H522 = tested on: NCI-H522
TK-10 = tested on: TK-10
UACC-62 = tested on: UACC-62
DU-145 = tested on: DU-145
OVCAR-8 = tested on: OVCAR-8
KM12 = tested on: KM12
SK-MEL-2 = tested on: SK-MEL-2
CAKI-1 = tested on: CAKI-1
HL-60 = tested on: HL-60
PC-3 = tested on: PC-3
SW-620 = tested on: SW-620
U-251 = tested on: U-251
UACC-257 = tested on: UACC-257
MDA-MB-231 = tested on: MDA-MB-231
CCRF-CEM = tested on: CCRF-CEM
M14 = tested on: M14
HCT-116 = tested on: HCT-116
Malme-3M = tested on: Malme-3M
HCC 2998 = tested on: HCC 2998

Row | SMILES | GI50 (NCI-H522) | GI50 (TK-10) | GI50 (UACC-62) | GI50 (DU-145) | GI50 (OVCAR-8) | GI50 (KM12) | GI50 (SK-MEL-2) | GI50 (CAKI-1) | GI50 (HL-60) | GI50 (PC-3) | GI50 (SW-620) | GI50 (U-251) | GI50 (UACC-257) | GI50 (MDA-MB-231) | GI50 (CCRF-CEM) | GI50 (M14) | GI50 (HCT-116) | GI50 (Malme-3M) | GI50 (HCC 2998)
1 | O=C(CCSC(CC(=O)c1ccc(Cl)cc1)c1ccc(Cl)cc1)Nc1ccc(Cl)cc1 (stereo unspecified) | 14.5 µM (inactive) | 14.6 µM (inactive) | 10.2 µM (inactive) | 14 µM (inactive) | 14.9 µM (inactive) | 3.21 µM (inactive) | 15.5 µM (inactive) | 18.4 µM (inactive) | 4.1 µM (inactive) | 14.1 µM (inactive) | 2.88 µM (inactive) | 9.06 µM (inactive) | 15.7 µM (inactive) | 15.2 µM (inactive) | 2.09 µM (inactive) | 14.4 µM (inactive) | 5.86 µM (inactive) | 16.9 µM (inactive) | 14 µM (inactive)
2 | Oc1ccc(-c2cc(-c3cc(-c4ccc(O)cc4)no3)on2)cc1 | 19.7 µM (inactive) | > 100 µM (inactive) | 1.16 µM (inactive) | 5.09 µM (inactive) | > 100 µM (inactive) | 11.8 µM (inactive) | > 48 µM (inactive) | 56.6 µM (inactive) | 3.36 µM (inactive) | 13.2 µM (inactive) | > 30.3 µM (inactive) | 39.9 µM (inactive) | 7.64 µM (inactive) | > 24.4 µM (inactive) | 0.873 µM (active) | > 32.4 µM (inactive) | 45.3 µM (inactive) | 46.1 µM (inactive) | > 63.4 µM (inactive)
3 | CCN(CC)/[N+]([O-])=N/OCOC | > 100 µM (inactive) | > 100 µM (inactive) | > 100 µM (inactive) | > 100 µM (inactive) | > 100 µM (inactive) | > 100 µM (inactive) | > 100 µM (inactive) | > 100 µM (inactive) | > 100 µM (inactive) | > 100 µM (inactive) | > 100 µM (inactive) | > 100 µM (inactive) | > 100 µM (inactive) | > 100 µM (inactive) | > 100 µM (inactive) | > 100 µM (inactive) | > 100 µM (inactive) | > 100 µM (inactive) | > 100 µM (inactive)
4 | CN(C)c1ccc(/N=N\c2cccc3ncccc23)cc1 | 20.8 µM (inactive) | 0.0425 µM (active) | 97.5 µM (inactive) | 75.7 µM (inactive) | > 100 µM (inactive) | 33.6 µM (inactive) | > 100 µM (inactive) | > 93.8 µM (inactive) | 12.8 µM (inactive) | 42.6 µM (inactive) | 62.2 µM (inactive) | > 74.1 µM (inactive) | > 100 µM (inactive) | 41.1 µM (inactive) | 51.3 µM (inactive) | 61.7 µM (inactive) | 52.7 µM (inactive) | > 90.8 µM (inactive) | 0.302 µM (active)
5 | CCN1C(=O)CS/C1=N\NC(=O)CSc1nc2ccccc2c(=O)n1CC | > 100 µM (inactive) | > 100 µM (inactive) | > 100 µM (inactive) | > 100 µM (inactive) | > 100 µM (inactive) | > 100 µM (inactive) | > 100 µM (inactive) | > 100 µM (inactive) | 96.4 µM (inactive) | > 100 µM (inactive) | > 100 µM (inactive) | > 100 µM (inactive) | > 100 µM (inactive) | > 100 µM (inactive) | > 100 µM (inactive) | > 100 µM (inactive) | > 100 µM (inactive) | > 100 µM (inactive) | > 100 µM (inactive)
6 | Cc1cc(NS(=O)(=O)c2ccc(Nc3c4ccccc4nc4ccc(C(=O)Nc5ccc(S(=O)(=O)N=C(N)N)cc5)cc34)cc2)no1 | > 100 µM (inactive) | > 100 µM (inactive) | > 100 µM (inactive) | > 100 µM (inactive) | > 100 µM (inactive) | > 100 µM (inactive) | > 100 µM (inactive) | > 100 µM (inactive) | > 100 µM (inactive) | > 100 µM (inactive) | > 100 µM (inactive) | > 100 µM (inactive) | > 100 µM (inactive) | > 100 µM (inactive) | 66.1 µM (inactive) | > 100 µM (inactive) | > 100 µM (inactive) | > 100 µM (inactive) | > 100 µM (inactive)
7 | CCCCCCCCCCC1OC([C@@H](O)CC[C@H](O)C2CC[C@@H](CCCCCCCC(O)CC3=CC(C)OC3=O)O2)CCC1O (stereo partly specified) | 5.89 µM (inactive) | 11.7 µM (inactive) | 4.72 µM (inactive) | 14.6 µM (inactive) | 3.79 µM (inactive) | 2.58 µM (inactive) | 9.08 µM (inactive) | 11.7 µM (inactive) | 2.74 µM (inactive) | 5.94 µM (inactive) | > 17.9 µM (inactive) | 14.4 µM (inactive) | 0.622 µM (active) | > 16.3 µM (inactive) | 5.97 µM (inactive) | 8.04 µM (inactive) | 0.148 µM (active) | 14 µM (inactive) | 8 µM (inactive)
8 | O=C(/C=C\Nc1ccccc1O)C(Cl)(Cl)Cl | 22.6 µM (inactive) | 78.5 µM (inactive) | < 0.01 µM (active) | 45.8 µM (inactive) | 35.9 µM (inactive) | 33.7 µM (inactive) | 43.2 µM (inactive) | 34.9 µM (inactive) | 21.8 µM (inactive) | 37.7 µM (inactive) | > 100 µM (inactive) | 26.9 µM (inactive) | 33.5 µM (inactive) | > 100 µM (inactive) | 28.1 µM (inactive) | 38.9 µM (inactive) | 37.8 µM (inactive) | 82 µM (inactive) | 26.3 µM (inactive)
9 | CCOP(=O)(OCC)/C(C#N)=C/c1cnc[nH]1 | > 100 µM (inactive) | > 100 µM (inactive) | > 100 µM (inactive) | > 100 µM (inactive) | > 100 µM (inactive) | > 100 µM (inactive) | > 100 µM (inactive) | > 100 µM (inactive) | > 100 µM (inactive) | > 100 µM (inactive) | > 100 µM (inactive) | > 100 µM (inactive) | > 100 µM (inactive) | > 100 µM (inactive) | > 100 µM (inactive) | > 100 µM (inactive) | > 100 µM (inactive) | > 100 µM (inactive) | > 100 µM (inactive)
10 | Cc1ccc(-c2c3c(n(C4OC(CO)C(O)C(O)C4O)c(=S)c2C#N)CC(C)(C)CC3=O)cc1 (stereo unspecified) | > 100 µM (inactive) | > 100 µM (inactive) | 46.5 µM (inactive) | > 100 µM (inactive) | 71.9 µM (inactive) | > 100 µM (inactive) | 80.9 µM (inactive) | > 100 µM (inactive) | 41.5 µM (inactive) | 41.1 µM (inactive) | > 100 µM (inactive) | 52.4 µM (inactive) | > 100 µM (inactive) | 80.5 µM (inactive) | 68.2 µM (inactive) | 93.5 µM (inactive) | 40.4 µM (inactive) | 96.6 µM (inactive) | > 100 µM (inactive)
11 | CC1=CC(C)C(C)N(CCNS(=O)(=O)c2ccc(C)cc2)c2ccccc21 (stereo unspecified) | 18.2 µM (inactive) | 30.5 µM (inactive) | 12.2 µM (inactive) | 11.1 µM (inactive) | 14.6 µM (inactive) | 19.1 µM (inactive) | 12 µM (inactive) | 20.4 µM (inactive) | 14 µM (inactive) | 12.5 µM (inactive) | > 10 µM (inactive) | 16.5 µM (inactive) | 16.1 µM (inactive) | 13.8 µM (inactive) | 13 µM (inactive) | 12.3 µM (inactive) | 12.9 µM (inactive) | 14.1 µM (inactive) | 16.4 µM (inactive)
12 | COC(=O)c1cc(C)ccc1C1CN=NC12Cc1ccc(C)cc1C2=O (stereo unspecified) | 32.6 µM (inactive) | 61 µM (inactive) | 54.7 µM (inactive) | 82.8 µM (inactive) | 56.4 µM (inactive) | 29 µM (inactive) | 57.9 µM (inactive) | 83.4 µM (inactive) | 13 µM (inactive) | 32.4 µM (inactive) | 53.2 µM (inactive) | 44.7 µM (inactive) | 34.3 µM (inactive) | 63.8 µM (inactive) | 32.7 µM (inactive) | 38.3 µM (inactive) | 27.1 µM (inactive) | 25.1 µM (inactive) | 31.4 µM (inactive)
13 | Cc1ccc(CNNC(=O)c2cc[n+]([BH2-]C#N)cc2)cc1 | 95.5 µM (inactive) | > 100 µM (inactive) | 17.1 µM (inactive) | > 100 µM (inactive) | > 100 µM (inactive) | > 100 µM (inactive) | > 100 µM (inactive) | > 100 µM (inactive) | 83.8 µM (inactive) | 84.9 µM (inactive) | > 100 µM (inactive) | > 100 µM (inactive) | > 100 µM (inactive) | 99.3 µM (inactive) | 26.3 µM (inactive) | > 100 µM (inactive) | > 100 µM (inactive) | > 100 µM (inactive) | > 100 µM (inactive)
14 | c1csc(-c2nccc3c2[nH]c2ccccc23)c1 | 15.8 µM (inactive) | 21.1 µM (inactive) | 30.2 µM (inactive) | 27.9 µM (inactive) | 20.5 µM (inactive) | 19.5 µM (inactive) | 21.8 µM (inactive) | 27.4 µM (inactive) | 29.3 µM (inactive) | 21.6 µM (inactive) | 21 µM (inactive) | 25.4 µM (inactive) | 21.2 µM (inactive) | 20.6 µM (inactive) | 21.2 µM (inactive) | 17.8 µM (inactive) | 16.3 µM (inactive) | 24.2 µM (inactive) | 21.8 µM (inactive)
